# In patent US5298509A, “Octahydronaphthoquinolizines, and methods of making and using thereof” (priority 1992, dated 1994):
# Entries after “also recorded” stand apart in the source; their conditions may differ. Where two headings read alike, the source gives them in different places.
# Tests used:
# sigma receptor = conditions: cited from earlier work
# drug-resistant patients = conditions: human, in vivo; cited from earlier work
# 5-HT-2 receptor = 5-HT-2 receptor activity assay; format: binding
# D2 receptor = assay: Dopamine D2 binding assay, (3H)-spiperone, bovine striatal homogenates
# Method: (§1) Radioligand binding assays were performed on the tricyclic (cis-cis) hexahydrojulolidine (HHJ), the parent tetracyclic (cis,cis) OHNQ (I-1) and 9-methoxy OHNQ (I-4), for binding to D2 and sigma receptors synthesized according to Example 1. The D2 assays were performed on bovine striatal homogenates using 0.50 nM (^3 H)-spiperone in the presence of 250 μM ketanserin (to inhibit association with some 5-HT receptors and spirodecanone sites), with non-specific binding defined using 10 μM sulpiride according to known methods. The sigma binding assay was performed on bovine and rat cerebellar homogenates using 2.0 nM (^3 H)-haloperidol in the presence of 25 nM spiperone (to inhibit association with D2 dopamine receptors); non-specific binding was defined in the presence of 1 μM unlabeled haloperidol. […] Sigma receptor assays on rat brain preparations using (^3 H)-DTG and (^3 H)-Pentazocine as the radiolabels are performed with good results. […] Additional assays have been performed for D-1 activity (using (^3 H)-SCH23390), and for α-1 and α-2 activity as well as several 5-HT subtypes (5-HT-1-a, 5-HT-3, 5-HT uptake site).
# sigma receptors [1] = assay: Sigma receptor binding, rat liver preparations
# Method: (§2) As a non-limiting subexample, a sigma binding assay can use cerebellar tissue extracts to bind sigma receptor selectively by (^3 H)-halopendol with spiperone used to inhibit-binding to D2 receptors. […] These ligands are incubated at 30° C. with tissue (rat liver, rat cerebellum) homogenates for a 45 min period. In these assays, tissue concentrations used a range from 0.1-0.5 mg protein/mL, and radioligand concentrations range from 50 pM-10 μM. […] Filters are dried and counted for (^3 H)-activity in a liquid scintillation counter. The amount of ligand bound to the tissue receptor is measured with the aid of computer analysis of the data, using the LIGAND or an equivalent algorithm.
# (§3) Radioligand binding assays were performed on the tricyclic (cis-cis) hexahydrojulolidine (HHJ), the parent tetracyclic (cis,cis) OHNQ (I-1) and 9-methoxy OHNQ (I-4), for binding to D2 and sigma receptors synthesized according to Example 1. The D2 assays were performed on bovine striatal homogenates using 0.50 nM (^3 H)-spiperone in the presence of 250 μM ketanserin (to inhibit association with some 5-HT receptors and spirodecanone sites), with non-specific binding defined using 10 μM sulpiride according to known methods. The sigma binding assay was performed on bovine and rat cerebellar homogenates using 2.0 nM (^3 H)-haloperidol in the presence of 25 nM spiperone (to inhibit association with D2 dopamine receptors); non-specific binding was defined in the presence of 1 μM unlabeled haloperidol. […] Sigma receptor assays on rat brain preparations using (^3 H)-DTG and (^3 H)-Pentazocine as the radiolabels are performed with good results. […]
# (§4) Ten to twenty point assays are performed in triplicate using either 4 nM (^3 H)-haloperidol, 4 nM (^3 H)-DTG or 0.4 nM (^3 H)-DTG (New England Nuclear) as radiolabels, on rat liver, rat cerebellar or bovine cerebellar homogenates. […] Radioactivity is counted the following day at 40% efficiency.
# PCP site = conditions: cited from earlier work
# [2] = test system: sigma versus dopamine D2 receptors; conditions: cited from earlier work
# sigma receptors [3] = assay: Sigma binding assay, (3H)-haloperidol, rat cerebellar homogenates; conditions: for binding to sigma sites (in words): rat cerebellar preparation
# Method: as §2, §1
# Crude tissue homogenates are prepared by the following general procedure. Frozen tissue is thawed and homogenized in a buffer containing 50 mM Tris-HCI, 120 mM NaCl, 1 mM MgCl2, and 5 mM KCl, pH 8.0. This tissue suspension is sedimented at 100,000×g for a 30 min. period. Following centrifugation, the supernatant is discarded and the resultant pellet is resuspended in the same buffer solution, and respun as previously described.
# Ten to twenty point assays are performed in triplicate using either 4 nM (^3 H)-haloperidol, 4 nM (^3 H)-DTG or 0.4 nM (^3 H)-DTG (New England Nuclear) as radiolabels, on rat liver, rat cerebellar or bovine cerebellar homogenates. The concentration of the displacing agent generally ranges between 0.2 nM and 64 μM in a final volume of 2 mL. Non-specific binding is defined by the presence of 1 μM unlabeled haloperidol. Spiperone at a concentration of 25 nM is added in the assays performed with (^3 H)-haloperidol in order to block D2 receptor sites. The buffer system employed is as in the tissue preparation as presented herein. Incubation is carried out for one hour at room temperature after addition of the tissue. Samples are rapidly filtered through Schleicher and Schuell #32 glass filters presoaked with 0.1% polyethyleneimine, on a 24-position cell harvester (Brandel). The filters are washed with ice-cold 10 mM Tris buffer, pH 7.7, and then placed in 2 mL of scintillation fluid. Radioactivity is counted the following day at 40% efficiency.
# sigma receptors [4] = assay: Sigma binding assay, (3H)-haloperidol, bovine cerebellar homogenates; conditions: bovine cerebellar preparation
# Method: as §2, §3, §4
# sham-feeding rat [5] = assay: Microstructural analysis of licking/ingestive behavior in the sham-feeding rat; format: in vivo; conditions: SKF 5 mg/kg, BMY 4 mg/kg, HAL 0.1 mg/kg, i.p.; for interlick intervals (in words): range 0-250 msec
# Source text: Motoric components of the ingestive behavior may be differentiated from the "rewarding", sensory components by the use of microstructural analysis, a computer-controlled device which records the time at which each animal licks, to the nearest fractional millisecond. Analysis of licking and ingestive behavior in bursts is monitored through a fixed time test such that sigma agents may influence ingestive behavior either through the motor output systems or through nigrostriatal dopamine systems. The role for sigma sites in motor output systems include those muscles which are associated with licking, biting, and swallowing.
# This consists of the use of a computer-controlled device which records the time at which each animal licks, to the nearest fractional millisecond. This then allows analysis of licking and ingestive behavior in bursts through a 30-minute test.
# Using this behavioral assay system, with peripheral administration of the various selective drugs, rats (N=6) received 20% sucrose during a 30-min test, such that there was no effect of the sigma agents (+)-SKF 10,047 (5 mg/kg, i.p.; SKF) or BMY 14802 (4 mg/kg, i.p.; BMY) depending upon the volume of the sucrose solution which was ingested. […] These changes are attributed to a shift in the mean of the distribution histogram of interlick intervals. […] The shift in interlick interval distribution is expected to arise from occupancy of hindbrain sigma sites, possibly in the reticular formation, which are involved in definition of the lick rate in the rat.
# sham-feeding rat [6] = assay: Sucrose ingestion (sham intake) in the sham-feeding rat; format: in vivo; conditions: 20% sucrose, 30-min test, N=6; for effect on volume of sucrose solution ingested (in words): (+)-SKF 10,047 5 mg/kg i.p., BMY 14802 4 mg/kg i.p., haloperidol 0.1 mg/kg i.p.
# Source text: As a non-limiting example, distinguishing between sigma receptor modulation and dopamine modulation may be accomplished using a D2 distinguishing assay, such as a behavioral assay system which discriminates the effects of dopamine D2 antagonists from sigma modulators or agents. A non-limiting example of a D2 /sigma distinguishing assay system involves quantification of ingestion of sucrose in a sham-feeding rat, where dopamine plays a critical role in the mediation of this behavior. See Schneider, L. H. et al. Eur. J. Pharmacol. 186:61-70 (1990) which is entirely incorporated herein by reference. […] The principal factor which compels the animal to maintain ingestion is the sweet taste of the sucrose solution; the involvement of the ascending mesolimbic dopamine system in this effect appears to be manifested as a modulation of the hedonic potency of the orosensory event (sweet taste). […] Neurosci. Abstr. 16:1028 (1990) which references are incorporated entirely herein by reference.
# Differentiation of sigma and dopamine activities are provided by a behavioral assay system which effectively discriminates the effects of dopamine D-2 antagonists from sigma agents. The assay system involves quantification of ingestion of sucrose in the sham-feeding rat.
# dopamine D2 receptor = conditions: cited from earlier work
# [7] = solubilized rat liver preparations
smiles,measurement,setting,value
O=C(CCCN1CCC2(CC1)C(=O)NCN2c1ccccc1)c1ccc(F)cc1 [spiperone],affinity for sigma receptors (in words),sigma receptor,not spiperone
CN1CCN(C2=Nc3cc(Cl)ccc3Nc3ccccc32)CC1 [clozapine],agranulocytosis / side effects (in words),drug-resistant patients,"irreversible, potentially fatal agranulocytosis in a minority of patients; also recorded: less motor side effects; also recorded: severe and fatal agranulocytosis"
"COc1ccc2c(c1)C1CCCN3CCCC(C2)C13 (stereo not drawn) [(trans,trans) 11-methoxy OHNQ]",activity at 5-HT-2 receptor sites (in words),5-HT-2 receptor,modest but selective activity
same,activity at D-2 receptor sites (in words),D2 receptor,modest but selective activity
"c1ccc2c(c1)CC1CCCN3CCCC2C13 (stereo not drawn) [unsubstituted (trans,trans) OHNQ]",IC50,sigma receptors [1]; crude liver homogenates,157 nM
same,IC50,sigma receptors [1]; [7],87 nM
same,affinity to sigma receptors (in words),sigma receptors [1]; [7],high affinity
same,activity at 5-HT-2 receptor sites (in words),5-HT-2 receptor,modest but selective activity
same,activity at D-2 receptor sites (in words),D2 receptor,modest but selective activity
"Cl.Fc1ccc2[nH]c3c(c2c1)CN(CCCc1cccnc1)CC3 [WY 47,384]",affinity for sigma receptors (in words),sigma receptor,moderate to high affinity
"C=CCN1CCC2(C)c3cc(O)ccc3CC1C2C (stereo not drawn) [(^3 H)-NANM, N-allylnormetazocine]",affinity for sigma receptors (in words),sigma receptor,high affinity
same,affinity toward PCP sites (in words),PCP site,low affinity
"c1csc(C2(N3CCCCC3)CCCCC2)c1 [(^3 H)-TCP, (^3 H)-1-((2-thienyl)cyclohexyl)piperidine]",affinity for sigma receptors (in words),sigma receptor,not labeled
CCCN1CCCC(c2cccc(O)c2)C1 (stereo not drawn) [3-PPP],affinity for sigma versus dopaminergic receptors (in words),[2],higher affinity for sigma receptor sites than for dopaminergic receptors
COc1ccc2c(c1)C1CCCN3CCCC(C2)C13 (stereo not drawn) [11-methoxy OHNQ],sigma potency compared with reference compounds (in words),sigma receptors [3]; rat cerebellar membranes,"on the order of that observed for (+)-NaMM, (+)-3-PPP, as well as cis-fused tricyclic octahydrobenzo-(f) quinolines with hydroxyl groups on the aromatic ring"
same,IC50,"sigma receptors [3]; rat cerebellar membranes, 2.0 nM (3H)-haloperidol, 25 nM spiperone",300 nM
same,binding to sigma sites (in words),sigma receptors [3],considerably stronger binding
same,"sigma binding, rat versus bovine (in words)",sigma receptors [3]; rat cerebellar vs bovine cerebellar receptors,"bound more specifically and with a higher affinity to rat cerebellar sigma receptors, than to bovine cerebellar receptors"
same,binding to sigma sites (in words),sigma receptors [4],weak sigma binding
same,IC50,"sigma receptors [4]; 2.0 nM (3H)-haloperidol, 25 nM spiperone",1500 nM
O=C1CC2(CCCC2)CC(=O)N1CCCCN1CCN(c2ncccn2)CC1 [buspirone],affinity for sigma receptors (in words),sigma receptor,high affinity
"c1ccc(C2(N3CCCCC3)CCCCC2)cc1 [(^3 H)-PCP, phencyclidine]",affinity for sigma receptors (in words),sigma receptor,not labeled
C=CCN1CC[C@]23c4c5ccc(O)c4O[C@H]2C(=O)CC[C@@]3(O)[C@H]1C5 [naloxone],block of (3H)-NANM binding (in words),sigma receptor; typical opiate receptor antagonists,not blocked
"C1CC2CCCN3CCCC(C1)C23 (stereo not drawn) [HHJ, hexahydrojulolidine]",binding to sigma sites (in words),sigma receptors [3],did not exhibit binding
same,binding to sigma sites (in words),sigma receptors [4],did not exhibit binding
OC(CCCN1CCN(c2ncc(F)cn2)CC1)c1ccc(F)cc1 (stereo not drawn) [BMY 14802],selectivity for sigma versus dopamine D2 receptors,[2],10 to 15 fold
same,mean lick cluster size (in words),sham-feeding rat [5],smaller mean lick cluster size
same,interlick intervals (in words),sham-feeding rat [5],significant decrease of interlick intervals
same,affinity for sigma receptors (in words),sigma receptor,moderate to high affinity
same,affinity toward PCP sites (in words),PCP site,little or no affinity
same,effect on volume of sucrose solution ingested (in words),sham-feeding rat [6],no effect
Cl.N#Cc1cccnc1N1CCN(CCCCN2C(=O)SC3(CCCC3)C2=O)CC1 [BMY 13980],affinity for sigma receptors (in words),sigma receptor,moderate to high affinity
O=C(CCCN1CCC(O)(c2ccc(Cl)cc2)CC1)c1ccc(F)cc1 [haloperidol],mean lick cluster size (in words),sham-feeding rat [5],not SKF or HAL
same,interlick intervals (in words),sham-feeding rat [5],not SKF or HAL
same,affinity for sigma receptors (in words),sigma receptor,high affinity
same,affinity for sigma receptors (in words),sigma receptor; listed as (^3 H)-haloperidol,labeled with high affinity
same,affinity for sigma receptors (in words),sigma receptor; listed as Haloperidol,very high affinity
same,activity at dopamine D2 receptor (in words),dopamine D2 receptor,high affinity
same,effect on volume of sucrose solution ingested (in words),sham-feeding rat [6],highly significant reduction
same,sham intake of the sucrose solution,"sham-feeding rat [6]; haloperidol 0.1 mg/kg, i.p., vs 33.7±2.7 ml, p<0.001",15 ± 2.7 mL
CCN1CCC[C@H]1CNC(=O)c1c(OC)ccc(Br)c1OC [remoxipride],affinity for sigma receptors (in words),sigma receptor,moderate to high affinity
same,affinity toward PCP sites (in words),PCP site,little or no affinity
"C=CCN1CCC2(C)c3cc(O)ccc3CC1C2C (single isomer, unassigned; (+)) [(+)-SKF 10,047]",mean lick cluster size (in words),sham-feeding rat [5],not SKF or HAL
same,interlick intervals (in words),sham-feeding rat [5],not SKF or HAL
same,enantioselectivity for sigma sites (in words),sigma receptor; (+)-NANM versus (-)-NANM,more potent than (-)-NANM
same,effect on volume of sucrose solution ingested (in words),sham-feeding rat [6],no effect
C[C@@H]1CN(CCCn2c3ccccc3c3ccccc32)C[C@H](C)N1 [rimcazole],selectivity for sigma versus dopamine D2 receptors,[2],10 to 15 fold
same,affinity for sigma receptors (in words),sigma receptor,moderate to high affinity
same,affinity toward PCP sites (in words),PCP site,little or no affinity
O=C1CC2(CCCC2)CC(=O)N1CCCCN1CCN(c2nsc3ccccc23)CC1 [tiospirone],affinity for sigma receptors (in words),sigma receptor,moderate to high affinity
"CCCN1CCC[C@H](c2cccc(O)c2)C1 [(+)-(^3 H)-3-PPP, (+)-(^3 H)-3-(+)-3-(3-hydroxyphenyl) N-(1-propyl)piperidine]",affinity for sigma receptors (in words),sigma receptor,labeled with high affinity
